c1ccc2ccccc2c1
Settings	solubility (mole fraction)
in DMF, 278.05 K	0.162
in DMF, 283.05 K	0.185
in DMF, 288.15 K	0.215
in DMF, 292.75 K	0.244
in DMF, 298.05 K	0.281
in DMF, 303.25 K	0.307
in DMF, 307.95 K	0.354
in DMF, 313.15 K	0.406
in DMF, 318.15 K	0.465
in NMP, 278.18 K	0.269
in NMP, 283.25 K	0.289
in NMP, 288.17 K	0.307
in NMP, 293.2 K	0.336
in NMP, 298.16 K	0.379
in NMP, 303.21 K	0.41
in NMP, 308.17 K	0.438
in NMP, 313.16 K	0.486
in NMP, 318.21 K	0.535
in NMP, 323.27 K	0.577
in THF, 278.6 K	0.241
in THF, 284.35 K	0.273
in THF, 288.25 K	0.292
in THF, 293.25 K	0.324
in THF, 298 K	0.352
in THF, 303.2 K	0.385
in THF, 308.19 K	0.428
in THF, 313.25 K	0.469
in THF, 318.35 K	0.51
in THF, 323.2 K	0.566
in THF, 328.21 K	0.6
in THF, 333.22 K	0.629
in acetone, 278.15 K	0.124
in acetone, 283.15 K	0.143
in acetone, 288.05 K	0.171
in acetone, 293.25 K	0.194
in acetone, 298.35 K	0.226
in acetone, 303 K	0.268
in acetone, 308.1 K	0.307
in acetone, 313.05 K	0.361
in acetone, 318.15 K	0.417
in acetone, 323.05 K	0.477
in ethyl acetate, 278.2 K	0.174
in ethyl acetate, 283.17 K	0.191
in ethyl acetate, 288.21 K	0.217
in ethyl acetate, 293.19 K	0.233
in ethyl acetate, 298.25 K	0.276
in ethyl acetate, 303.2 K	0.314
in ethyl acetate, 308.21 K	0.357
in ethyl acetate, 313.23 K	0.406
in ethyl acetate, 318.17 K	0.465
in ethyl acetate, 323.21 K	0.526
in isobutyl acetate, 278.18 K	0.183
in isobutyl acetate, 283.2 K	0.205
in isobutyl acetate, 288.22 K	0.232
in isobutyl acetate, 293.23 K	0.259
in isobutyl acetate, 298.19 K	0.299
in isobutyl acetate, 303.23 K	0.335
in isobutyl acetate, 308.45 K	0.387
in isobutyl acetate, 313.2 K	0.433
in isobutyl acetate, 318.17 K	0.483
in isobutyl acetate, 323.21 K	0.539
in n-butyric acid, 278.17 K	0.0834
in n-butyric acid, 283.27 K	0.0952
in n-butyric acid, 288.45 K	0.113
in n-butyric acid, 293.2 K	0.129
in n-butyric acid, 298.26 K	0.154
in n-butyric acid, 303.22 K	0.179
in n-butyric acid, 308.2 K	0.215
in n-butyric acid, 313.3 K	0.253
in n-butyric acid, 318.19 K	0.292
in n-butyric acid, 323.28 K	0.34
